Measured values taken from publication PMC4291147, “Molecular Basis of Histone Tail Recognition by Human TIP5 PHD Finger and Bromodomain of the Chromatin Remodeling Complex NoRC” (Structure(London, England:1993), 2015).
One block for each molecule: values may come before it. Where no end group is shown, it is not given here.

How the values were obtained:
BAZ2B PHD = molecular target: T1, BAZ2B PHD (Homo sapiens, UniProt Q9UIF8); assay: ITC, histone peptide binding to BAZ2B PHD; conditions: 20 mM HEPES (pH 7.5–8), 150 mM NaCl, 0.5 mM TCEP, 293 or 298 K, protein 60–120 μM in cell, peptide 800–1,500 μM in syringe, ± error of nonlinear least-squares fit
T1 construct: 1928- 1983 for BAZ2B) and bromodomains; His6-SUMO (N, cleaved yes); made in house; host or cells: E. coli BL21(DE3) Rosetta or BL21(DE3)-R3-pRARE2
T1 sequence (Q9UIF8 1928-1983): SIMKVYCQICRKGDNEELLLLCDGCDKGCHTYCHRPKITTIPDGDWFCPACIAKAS
Protocol: (§1) All calorimetric experiments were performed on an ITC200 or VP-ITC microcalorimeters (MicroCal). Protein solutions were buffer exchanged by gel filtration into buffer (20 mM HEPES [pH 8], 150 mM NaCl, 0.5 mM Tris [2-carboxyethyl]phosphine [TCEP]), and lyophilized histone peptides were dissolved in the same buffer. All measurements were carried out at 293 or 298 K. Protein solutions (60–120 μM) in the calorimetric cell were titrated with the peptide solutions (800–1,500 μM) in the syringe. The data were analyzed with the MicroCal ORIGIN software package using, in most cases, a single binding site model. The first data point was excluded from the analysis. […]
(§2) The cDNAs encoding tandem PHD zinc finger and bromodomain of human TIP5 […]
(§3) GeneBank: Q9UIF8) were synthesized by GenScript with codons optimized f or E. coli. expression and were subcloned into a modif ied pET15 vector using NdeI/XhoI sites f or expression as recombinant proteins with a His6 tag fused with small ubiquitin like modifier (SUMO)-1 fusion tag at the N terminus. cDNA sequences were used as a template to amplify single PHD zinc fingers (residues 1673- 1728 for TIP5; residues 2054- 2168 f or BAZ2B) regions. […]

TIP5 PHD = molecular target: T2, TIP5 PHD (Homo sapiens, UniProt Q9UIF9); assay: ITC, histone peptide binding to TIP5 PHD; conditions: 20 mM HEPES (pH 7.5–8), 150 mM NaCl, 0.5 mM TCEP, 293 or 298 K, protein 60–120 μM in cell, peptide 800–1,500 μM in syringe, ± error of nonlinear least-squares fit
T2 construct: single PHD zinc fingers (residues 1673- 1728 for TIP5); residues; His6-SUMO (N, cleaved yes); made in house; host or cells: E. coli BL21(DE3) Rosetta or BL21(DE3)-R3-pRARE2
T2 sequence (Q9UIF9 1673-1728): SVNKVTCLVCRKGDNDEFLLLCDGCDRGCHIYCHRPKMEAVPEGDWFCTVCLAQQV
Protocol: as §1, §2, §3

TIP5 BRD = molecular target: T3, TIP5 BRD (Homo sapiens, UniProt Q9UIF9); assay: ITC, histone peptide binding to TIP5 BRD; conditions: 20 mM HEPES (pH 7.5–8), 150 mM NaCl, 0.5 mM TCEP, 293 or 298 K
T3 construct: (residues 1797- 1899 for TIP5, residues); hexa-histidine (pNIC28-Bsa4, TEV site) (N, cleaved yes); made in house; host or cells: E. coli BL21(DE3) Rosetta or BL21(DE3)-R3-pRARE2
T3 sequence (Q9UIF9 1797-1899): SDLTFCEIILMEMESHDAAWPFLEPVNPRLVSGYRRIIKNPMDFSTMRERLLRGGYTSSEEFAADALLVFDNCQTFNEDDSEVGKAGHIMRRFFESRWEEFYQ
Protocol: All calorimetric experiments were performed on an ITC200 or VP-ITC microcalorimeters (MicroCal). […] The data were analyzed with the MicroCal ORIGIN software package using, in most cases, a single binding site model. The first data point was excluded from the analysis. […]
as §2
as §3, with “a” for “a template to amplify single PHD zinc fingers (residues 1673- 1728 for TIP5; residues 2054- 2168 f or BAZ2B) regions.”
Single PHD zinc f ingers were introduced into the same modif ied SUMO tagged plasmid whereas single bromodomains were f urther subcloned into pET28 derived expression vectors, pNIC28- Bsa4 using ligation independent […]
Protein Expression and Purification […]
(§4) competent BL21(DE3) Rosetta cells (Invitrogen) or into BL21 (DE3)-R3-pRARE2 cells (phage- resistant derivative with a pRARE plasmid encoding rare codon tRNAs). Cells were grown at 37 °C in Terrific Broth (Sigma) from overnight cultures until A600 reached between 0.6- 0.8, then the media was cooled and 0.2 mM isopropyl-β-Dthiogalactopyranoside (IPTG) was added to induce the protein expression at 20 °C f or 16 hours. An extra 0.1 mM ZnCl 2 was added in the protein expression to those targets that contained a PHD zinc f inger.
Different purification procedures have been optimized for each target protein. In common, E. coli overexpressed cells were lysed using an EmulsiFlex-C5 hig h-pr es s ure homogenizer (Avestin - Mannheim, Germany) or high -pressure cell disruption (Constant Systems Limited) in loading buffer A from the nickel affinity column (HisTrap Chelating FF 5ml) in the presence of Protease Inhibitor Cocktail EDTA-free (Roche). […]
on a Beckman Coulter Avanti J-20 XP centrif uge). After centrif ugation, the supernatant was loaded onto the nickel column and eluted in an imidazole linear gradient. The

BAZ2B BRD = molecular target: T4, BAZ2B BRD (Homo sapiens, UniProt Q9UIF8); assay: ITC, histone peptide binding to BAZ2B BRD; conditions: 20 mM HEPES (pH 7.5–8), 150 mM NaCl, 0.5 mM TCEP, 293 or 298 K
T4 construct: 2054- 2168 f or BAZ2B) regions; hexa-histidine (pNIC28-Bsa4, TEV site) (N, cleaved yes); made in house; host or cells: E. coli BL21(DE3) Rosetta or BL21(DE3)-R3-pRARE2
T4 sequence (Q9UIF8 2054-2168): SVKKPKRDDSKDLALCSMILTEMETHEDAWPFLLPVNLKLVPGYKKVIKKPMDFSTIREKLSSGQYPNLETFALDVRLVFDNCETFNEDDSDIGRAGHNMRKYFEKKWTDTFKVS
Protocol: as §1, §2
GeneBank: Q9UIF8) were synthesized by GenScript with codons optimized f or E. coli. expression and were subcloned into a modif ied pET15 vector using NdeI/XhoI sites f or expression as recombinant proteins with a His6 tag fused with small ubiquitin like modifier (SUMO)-1 fusion tag at the N terminus. cDNA sequences were used as a template to amplify single PHD zinc fingers (residues 1673- 1728 for TIP5; residues 2054- 2168 f or BAZ2B) regions. Single PHD zinc f ingers were introduced into the same modif ied SUMO tagged plasmid whereas single bromodomains were f urther subcloned into pET28 derived expression vectors, pNIC28- Bsa4 using ligation independent cloning (Stols et al., 2002).
Protein Expression and Purification
as §4, with “Best expression constructs encoding all target proteins were transformed into E. coli competent” for “competent”
Different purification procedures have been optimized for each target protein. In common, E. coli overexpressed cells were lysed using an EmulsiFlex-C5 hig h-pr es s ure homogenizer (Avestin - Mannheim, Germany) or high -pressure cell disruption (Constant Systems Limited) in loading buffer A from the nickel affinity column (HisTrap Chelating FF 5ml) in the presence of Protease Inhibitor Cocktail EDTA-free (Roche).
Lysates were cleared by centrif ugation (14,000 x g f or 45m in at 4 °C, JLA 16.250 rotor, on a Beckman Coulter Avanti J-20 XP centrif uge). After centrif ugation, the supernatant was loaded onto the nickel column and eluted in an imidazole linear gradient. The

BAZ2 BRD = tested on: BAZ2 BRD; set-up: method as in Structural Genomics Consortium [SGC] website; conditions: ref Structural Genomics Consortium [SGC] website; cited from earlier work
BAZ2B PHD-BRD = molecular target: T5, BAZ2B PHD-BRD (Homo sapiens, UniProt Q9UIF8); assay: ITC, histone peptide binding to tandem BAZ2B PHD-BRD; conditions: 20 mM HEPES (pH 7.5–8), 150 mM NaCl, 0.5 mM TCEP, 293 or 298 K, protein 60–120 μM in cell, peptide 800–1,500 μM in syringe, ± error of nonlinear least-squares fit
T5 construct: human BAZ2B (residues 1928-2168,; His6-SUMO (N, cleaved yes); made in house; host or cells: E. coli BL21(DE3) Rosetta or BL21(DE3)-R3-pRARE2
T5 sequence (Q9UIF8 1928-2168): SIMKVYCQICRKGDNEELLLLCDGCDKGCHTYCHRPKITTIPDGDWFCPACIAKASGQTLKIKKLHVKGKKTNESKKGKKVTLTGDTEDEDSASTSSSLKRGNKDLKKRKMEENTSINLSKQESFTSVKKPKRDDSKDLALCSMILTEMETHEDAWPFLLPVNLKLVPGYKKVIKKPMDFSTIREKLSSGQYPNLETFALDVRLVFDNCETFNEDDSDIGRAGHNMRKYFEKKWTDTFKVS
Protocol: as §1, §2, §3

TIP5 PHD-BRD = molecular target: T6, TIP5 PHD-BRD (Homo sapiens, UniProt Q9UIF9); assay: ITC, histone peptide binding to tandem TIP5 PHD-BRD; conditions: 20 mM HEPES (pH 7.5–8), 150 mM NaCl, 0.5 mM TCEP, 293 or 298 K, protein 60–120 μM in cell, peptide 800–1,500 μM in syringe, ± error of nonlinear least-squares fit
T6 construct: (residues 1673– 1901, UniProt: Q9UIF9); His6-SUMO (N, cleaved yes); made in house; host or cells: E. coli BL21(DE3) Rosetta or BL21(DE3)-R3-pRARE2
T6 sequence (Q9UIF9 1673-1901): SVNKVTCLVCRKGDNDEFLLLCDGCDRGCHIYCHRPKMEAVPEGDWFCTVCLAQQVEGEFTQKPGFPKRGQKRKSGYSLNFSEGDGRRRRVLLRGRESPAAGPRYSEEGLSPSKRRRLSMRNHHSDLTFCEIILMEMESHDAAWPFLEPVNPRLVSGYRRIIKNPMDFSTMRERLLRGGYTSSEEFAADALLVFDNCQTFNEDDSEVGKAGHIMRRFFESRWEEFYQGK
Protocol: as §1, §2, §3

[1] = ITC, protein 60–120 μM in cell, peptide 800–1,500 μM in syringe, ± error of nonlinear least-squares fit

Molecule: CNCCCC[C@H](NC(=O)[C@@H](NC(=O)[C@H](CCCNC(=N)N)NC(=O)[C@H](C)N)[C@@H](C)O)C(=O)N[C@@H](CCC(N)=O)C(=O)N[C@H](C(=O)N[C@@H](C)C(=O)N[C@@H](CCCNC(=N)N)C(=O)N[C@@H](CCCCN)C(=O)O)[C@@H](C)O [H3(1–9)K4me]
Kd (BAZ2B PHD): 3.98 ± 0.61 µM | Kd (TIP5 PHD): 2.5 ± 0.43 µM

Molecule: C[C@H](N)C(=O)N[C@@H](CCCNC(=N)N)C(=O)N[C@H](C(=O)N[C@@H](CCCCN)C(=O)N[C@@H](CCC(N)=O)C(=O)N[C@H](C(=O)N[C@@H](C)C(=O)N[C@@H](CCCNC(=N)N)C(=O)N[C@@H](CCCCN)C(=O)O)[C@@H](C)O)[C@@H](C)O [H3(1–9)]
Kd (BAZ2B PHD): 3.07 ± 0.71 µM | Kd (TIP5 PHD): 2.51 ± 0.63 µM

Molecule: Lys-Ser-Thr-Gly-Gly-Kac-Ala-Pro-Ala-Gln [H3(9-19)K14ac [R17A], mutated H3K14ac peptide, R17 to A17]
KD (BAZ2B BRD; [1]): no binding

Molecule: GGK(Ac)GLGK(Ac)G [H4(6–13)K8acK12ac]
Kd (TIP5 BRD; [1]): 63.25 ± 0.11 µM

Molecule: CCCOc1ccn2c(C(C)=O)cc(-c3ccccc3S(C)(=O)=O)c2c1 [GSK2801]
potency/selectivity in words (BAZ2 BRD): selective nanomolar

Molecule: CC(=O)NCCCC[C@H](NC(=O)CNC(=O)CNC(=O)[C@@H](NC(=O)[C@H](CO)NC(=O)[C@H](CCCCN)NC(=O)[C@H](CCCNC(=N)N)NC(=O)[C@H](C)NC(=O)[C@@H](NC(=O)[C@H](CCC(N)=O)NC(=O)[C@H](CCCCN)NC(=O)[C@@H](NC(=O)[C@H](CCCNC(=N)N)NC(=O)[C@H](C)N)[C@@H](C)O)[C@@H](C)O)[C@@H](C)O)C(=O)N[C@@H](C)C(=O)N1CCC[C@H]1C(=O)N[C@@H](CCCNC(=N)N)C(=O)N[C@@H](CCCCN)C(=O)O [H3(1–18)K14ac]
Kd (BAZ2B PHD-BRD): 2.33 ± 0.19 µM | Kd (TIP5 PHD-BRD): 1.87 ± 0.29 µM

Continued, values first:

KD (TIP5 BRD; [1]): no binding
Molecule: Gly-Ala-Kac-Arg-His-Ala-Lys-Val-Leu [H4(14-22)K16ac [R19A], mutated H4K16ac peptide, R19 to A19]

N (BAZ2B BRD; ITC stoichiometry, ± fit error): 1.062 ± 0.064 | TΔS (BAZ2B BRD; ITC): 2.989 kcal/mol | ΔG (BAZ2B BRD; ITC): -5.809 kcal/mol | ΔH (BAZ2B BRD; ITC, ± fit error): -2.820 ± 0.223 kcal/mol | N (TIP5 BRD; ITC stoichiometry, ± fit error): 1.186 ± 0.015 | TΔS (TIP5 BRD; ITC): -6.533 kcal/mol | ΔG (TIP5 BRD; ITC): -6.207 kcal/mol | TΔS (TIP5 BRD; ITC, listed as H4(14-22)K16ac): -6.533 kcal/mol | ΔG (TIP5 BRD; ITC, listed as H4(14-22)K16ac): -6.206 kcal/mol | ΔH (TIP5 BRD; ITC, ± fit error): -12.740 ± 0.226 kcal/mol | ΔH (TIP5 BRD; ITC, ± fit error, listed as H4(14-22)K16ac): -12.740 ± 0.226 kcal/mol
Molecule: GAK(Ac)RHRKVL [H4(14–22)K16ac]

Kd (BAZ2B BRD; [1]): 42.41 ± 0.42 µM | Kd (TIP5 BRD; [1]): 26.1 ± 0.37 µM
Molecule: GAK(Ac)RHRK(Ac)VL [H4(14–22)K16acK20ac]
